Results published in patent US20220378756A1, “ACTIVATING PYRUVATE KINASE R” (FORMA Therapeutics, Inc., priority 2019, published 2022).

Tested on: 2,3-DPG, ATP and p50 in blood
Assay: Phase 1 SAD/MAD, healthy volunteers: pharmacodynamics
Type: in vivo, human
Details: for median reduction in the concentration of 2,3-DPG, relative to baseline: HV MAD; for Median Percentage Change in 2,3-DPG Levels / Median Percentage Change in ATP Levels (Day 14) / Mean Absolute Change in p50 (mmHg) (Day 14): HV; for Mean Absolute Change in p50 (mmHg) (Day 14): vs baseline
Source text: This is a first-in-human (FIH), Phase 1 study of Compound 1 that will characterize the safety, PK, and PD of Compound 1 after a single dose and after repeated dosing first in healthy adult volunteers and then in adolescents or adults with sickle cell disease. Initially, a dose range of Compound 1 in single ascending dose (SAD) escalation cohorts will be explored in healthy subjects. Enrollment of healthy subjects into 2-week multiple ascending dose (MAD) escalation cohorts will be initiated once the safety and PK from at least two SAD cohorts is available to inform the doses for the 2-week MAD portion of the study. The MAD cohorts will then run in parallel to the single dose cohorts. A single dose cohort is planned to understand food effects (FE) on the PK of Compound 1. […] Multiple dose studies in SCD subjects will then be initiated upon completion of MAD studies in healthy volunteers. Compound 1 will be administered in 25 mg and 100 mg tablets delivered orally.
In this study, SAD/MAD cohorts are randomized (3 to 1) to receive Compound 1 or placebo (P). Compound 1 was evaluated first in 4 healthy SAD cohorts and 4 healthy MAD (14-day dosing period) cohorts. Based on the safety, and PK/PD profile from HS, Compound 1 is then evaluated in 1 SCD SAD cohort and 2 SCD MAD cohorts. Specifically, based on the safety and pharmacokinetic/pharmacodynamics (PK/PD) profile in healthy volunteer studies, Compound 1 is evaluated in patients (pts) with SCD, first in a single dose (SD or SAD) cohort and then in multiple-dose (MD or MAD) cohorts (14-day and 12-week). Safety assessments include AEs, vital signs, ECGs and laboratory parameters. PK/PD blood sampling was performed on Day 1 (SAD/MAD) and Day 14 (MAD) and up to 72 h after the last dose and at the end-of-study visit. PD parameters included 2,3-DPG, ATP, and p50 in all cohorts with additional PD studies (including oxygen scan) performed only in the SCD cohorts. PD parameters included 2,3-DPG, ATP, p50, RBC deformability with controlled deoxygenation and reoxygenation (Lorrca® oxygen scan) and varying osmolality (Lorrca® osmoscan)). To maintain study blind, pt identifiers were removed when needed.
Four healthy SAD cohorts were evaluated at doses of 200, 400, 700, and 1000 mg, and four healthy MAD cohorts received 200 to 600 mg total daily doses for 14 days at QD or BID dosing (100 mg BID, 200 mg BID, 300 mg BID, and 400 mg QD). In the food effect (FE) cohort, 10 healthy subjects received 200 mg of Compound 1 QD with and without food.
In the SAD cohorts, the subjects' blood 2,3-DPG levels were measured periodically after dosing by a qualified LC-MS/MS method for the quantitation of 2,3-DPG in blood. Decreased 2,3-DPG blood levels were observed 6 hours following a single dose of Compound 1 at all dose levels (earlier timepoints were not collected). Maximum decreases in 2,3-DPG levels generally occurred ˜24 hours after the first dose with the reduction sustained ˜48-72 hr postdose. Table 16 reports the median percentage change in 2,3-DPG blood levels, relative to baseline, measured over time in healthy volunteers after a single dose of Compound 1 (200 mg, 400 mg, 700 mg, or 1000 mg) or placebo. Accordingly, the median reduction in the concentration of 2,3-DPG, relative to baseline, was at least about […] at all dose levels tested 24 hours after administration of the single dose.
In the MAD cohorts, the subjects' blood 2,3-DPG levels were measured periodically after dosing by a qualified LC-MS/MS method for the quantitation of 2,3-DPG in blood. The maximum decrease in 2,3-DPG on Day 14 was 55% from baseline (median). […] Table 18 reports the median percentage change in 2,3-DPG blood levels, relative to baseline, measured over time after the first dose on days 1 and 14 in healthy volunteers who received daily doses of Compound 1 (100 mg BID, 200 mg BID, or 300 mg BID) or placebo for 14 days. […]

[1] = 100 mg BID, Day 14, 0 h after first daily dose
[2] = 100 mg BID, Day 14, 6 h after first daily dose
[3] = 100 mg BID, Day 14, 8 h after first daily dose
[4] = 100 mg BID, Day 14, 12 h after first daily dose
[5] = 100 mg BID, Day 14, 16 h after first daily dose
[6] = 100 mg BID, Day 14, 24 h after first daily dose
[7] = 100 mg BID, Day 14, 48 h after first daily dose
[8] = 100 mg BID, Day 14, 72 h after first daily dose
[9] = 200 mg BID, Day 14, 0 h after first daily dose
[10] = 200 mg BID, Day 14, 6 h after first daily dose
[11] = 200 mg BID, Day 14, 8 h after first daily dose
[12] = 200 mg BID, Day 14, 12 h after first daily dose
[13] = 200 mg BID, Day 14, 16 h after first daily dose
[14] = 200 mg BID, Day 14, 24 h after first daily dose
[15] = 200 mg BID, Day 14, 48 h after first daily dose
[16] = 200 mg BID, Day 14, 72 h after first daily dose

O=C([C@H](CO)c1ccccc1)N1CC2=C(C1)CN(S(=O)(=O)c1cnc3c(c1)OCCO3)C2 (single isomer, unassigned) [Compound 1]
maximum decrease in 2,3-DPG from baseline (median) (HV MAD cohorts, Day 14): 55%
median reduction in the concentration of 2,3-DPG, relative to baseline (all dose levels, 24 hours after first dose on day 1): at least 25%
median reduction in the concentration of 2,3-DPG, relative to baseline (all dose levels, 24 hours after first dose on day 14): at least 40%
median reduction of p50 (HV SAD, all dose levels, 24 hours after a single dose): 3-5 mmHg
Median Percentage Change in 2,3-DPG Levels (100 mg BID, Day 1, 0 h after first daily dose): 0.0%
Median Percentage Change in 2,3-DPG Levels (100 mg BID, Day 1, 6 h after first daily dose): −16.1%
Median Percentage Change in 2,3-DPG Levels (100 mg BID, Day 1, 8 h after first daily dose): −12.1%
Median Percentage Change in 2,3-DPG Levels (100 mg BID, Day 1, 12 h after first daily dose): −18.1%
Median Percentage Change in 2,3-DPG Levels (100 mg BID, Day 1, 16 h after first daily dose): −18.4%
Median Percentage Change in 2,3-DPG Levels (100 mg BID, Day 1, 24 h after first daily dose): −27.8%
Median Percentage Change in 2,3-DPG Levels [1]: −42.0%
Median Percentage Change in ATP Levels (Day 14) [1]: 41.5%
Median Percentage Change in 2,3-DPG Levels [2]: −44.3%
Median Percentage Change in ATP Levels (Day 14) [2]: 43.8%
Median Percentage Change in 2,3-DPG Levels [3]: −44.7%
Median Percentage Change in ATP Levels (Day 14) [3]: 47.8%
Median Percentage Change in 2,3-DPG Levels [4]: −43.6%
Median Percentage Change in ATP Levels (Day 14) [4]: 45.4%
Median Percentage Change in 2,3-DPG Levels [5]: −43.9%
Median Percentage Change in ATP Levels (Day 14) [5]: 44.8%
Median Percentage Change in 2,3-DPG Levels [6]: −44.1%
Median Percentage Change in ATP Levels (Day 14) [6]: 55.0%
Median Percentage Change in 2,3-DPG Levels [7]: −34.7%
Median Percentage Change in ATP Levels (Day 14) [7]: 52.2%
Median Percentage Change in 2,3-DPG Levels [8]: −20.2%
Median Percentage Change in ATP Levels (Day 14) [8]: 49.2%
Mean Absolute Change in p50 (mmHg) (Day 14) (200 mg BID for 14 days): −4.14 mmHg
Median Percentage Change in 2,3-DPG Levels (200 mg BID, Day 1, 0 h after first daily dose): 0.0%
Median Percentage Change in 2,3-DPG Levels (200 mg BID, Day 1, 6 h after first daily dose): −13.1%
Median Percentage Change in 2,3-DPG Levels (200 mg BID, Day 1, 8 h after first daily dose): −22.3%
Median Percentage Change in 2,3-DPG Levels (200 mg BID, Day 1, 12 h after first daily dose): −23.1%
Median Percentage Change in 2,3-DPG Levels (200 mg BID, Day 1, 16 h after first daily dose): −33.9%
Median Percentage Change in 2,3-DPG Levels (200 mg BID, Day 1, 24 h after first daily dose): −43.5%
Median Percentage Change in 2,3-DPG Levels [9]: −48.2%
Median Percentage Change in ATP Levels (Day 14) [9]: 55.3%
Median Percentage Change in 2,3-DPG Levels [10]: −48.5%
Median Percentage Change in ATP Levels (Day 14) [10]: 48.1%
Median Percentage Change in 2,3-DPG Levels [11]: −44.3%
Median Percentage Change in ATP Levels (Day 14) [11]: 58.4%
Median Percentage Change in 2,3-DPG Levels [12]: −42.2%
Median Percentage Change in ATP Levels (Day 14) [12]: 56.2%
Median Percentage Change in 2,3-DPG Levels [13]: −42.9%
Median Percentage Change in ATP Levels (Day 14) [13]: 57.0%
Median Percentage Change in 2,3-DPG Levels [14]: −44.3%
Median Percentage Change in ATP Levels (Day 14) [14]: 64.0%
Median Percentage Change in 2,3-DPG Levels [15]: −38.7%
Median Percentage Change in ATP Levels (Day 14) [15]: 58.9%
Median Percentage Change in 2,3-DPG Levels [16]: −20.2%
Median Percentage Change in ATP Levels (Day 14) [16]: 54.0%
Mean Absolute Change in p50 (mmHg) (Day 14) (300 mg BID for 14 days): −5.34 mmHg
Median Percentage Change in 2,3-DPG Levels (300 mg BID, Day 1, 0 h after first daily dose): 0.0%
Median Percentage Change in 2,3-DPG Levels (300 mg BID, Day 1, 6 h after first daily dose): −18.8%
Median Percentage Change in 2,3-DPG Levels (300 mg BID, Day 1, 8 h after first daily dose): −23.8%
Median Percentage Change in 2,3-DPG Levels (300 mg BID, Day 1, 12 h after first daily dose): −31.6%
